From ChEMBL document CHEMBL5113438, “Discovery of highly potent and selective CRBN-recruiting EGFRL858R/T790M degraders in vivo” (Eur J Med Chem, 2022)
Activity calls are given as the source filed them. The rule behind the calls is not given here.

Key:
[1] = AUC (0 to infinity) in Sprague-Dawley rat at 10 mg/kg, ip measured upto 24 hrs by LC-MS/MS analysis; assay type: ADME, organism-based; design: time < 24 hrs, dose 10 mg/kg, route ip; settings: in vivo
NCI-H1975 [2] = assay: Induction of cell cycle arrest in human NCI-H1975 cells assessed as accumulation of cells in G2/M phase by PI staining based flow cytometry method; assay type: functional; settings: dose 0.1-1 µM, DDE = dose-dependent effect
NCI-H1975 [3] = assay: Induction of apoptosis in human NCI-H1975 cells assessed as viable cells at 1.0 uM incubated for 48 hrs by AnnexinV-FITC/propidium iodide staining based flow cytometry analysis (reference value: 96.2 % ); assay type: functional; settings: read-out: Activity
HCC827 = assay: Antiproliferative activity against human NCI-HCC827 cells expressing EGFR del19 incubated for 72 hrs by CCK-8 assay; assay type: functional, cell-based; settings: HCC827, 72 h
NCI-H1975 [4] = assay: Induction of apoptosis in human NCI-H1975 cells assessed as necrotic cells at 0.1 uM incubated for 48 hrs by AnnexinV-FITC/propidium iodide staining based flow cytometry analysis (reference value: 3.28 % ); assay type: functional
NCI-H1299 [5] = assay: Induction of apoptosis in human NCI-H1299 cells assessed as viable cells at 1.0 uM incubated for 48 hrs by AnnexinV-FITC/propidium iodide staining based flow cytometry analysis (reference value: 98.05 % ); assay type: functional; settings: read-out: Activity
[6] = Plasma protein binding in rat assessed as unbound fraction at 1 uM incubated for 4 hrs by rapid equilibrium dialysis method; assay type: ADME, cell-free; settings: read-out: PPB (converted)
[7] = target: Serine/threonine-protein kinase AKT (Homo sapiens) (UniProt P31751+Q9Y243+P31749); assay: Inhibition of Akt phosphorylation in human NCI-H1975 cells preincubated under serum starvation for 8 hrs followed by compound addition measured after 48 hrs by Western blot analysis; assay type: cell-based; settings: dose 10-1000 nM, DDE = dose-dependent effect
NCI-H1299 [8] = assay: Induction of apoptosis in human NCI-H1299 cells assessed as late apoptotic cells at 0.1 uM incubated for 48 hrs by AnnexinV-FITC/propidium iodide staining based flow cytometry analysis (reference value: 1.53 % ); assay type: functional
[9] = Toxicity in BALB/c mouse xenografted with human NCI-H1975 cells assessed as change in body weight pretreated with compound at 10 mg/kg, ip administered once daily for 24 days and measured every 3 days […]; assay type: organism-based; settings: in vivo, 576 h, time 24 day
[10] = AUC (0 to t) in Sprague-Dawley rat at 10 mg/kg, ip measured upto 24 hrs by LC-MS/MS analysis; assay type: ADME, organism-based; design: dose 10 mg/kg, time < 24 hrs, route ip; settings: in vivo
NCI-H1975 [11] = assay: Antiproliferative activity against human NCI-H1975 cells expressing EGFR L858R/T790M incubated for 72 hrs by CCK-8 assay; assay type: functional, cell-based; settings: NCI-H1975, 72 h
NCI-H1299 [12] = assay: Induction of apoptosis in human NCI-H1299 cells assessed as necrotic cells at 0.1 uM incubated for 48 hrs by AnnexinV-FITC/propidium iodide staining based flow cytometry analysis (reference value: 0.24 % ); assay type: functional
NCI-H1299 [13] = assay: Induction of apoptosis in human NCI-H1299 cells assessed as necrotic cells at 1.0 uM incubated for 48 hrs by AnnexinV-FITC/propidium iodide staining based flow cytometry analysis (reference value: 0.24 % ); assay type: functional
NCI-H1975 [14] = assay: Induction of apoptosis in human NCI-H1975 cells assessed as viable cells at 0.1 uM incubated for 48 hrs by AnnexinV-FITC/propidium iodide staining based flow cytometry analysis (reference value: 96.2 % ); assay type: functional; settings: read-out: Activity
NCI-H1975 [15] = assay: Induction of apoptosis in human NCI-H1975 cells assessed as late apoptotic cells at 1.0 uM incubated for 48 hrs by AnnexinV-FITC/propidium iodide staining based flow cytometry analysis (reference value: 1.35 % ); assay type: functional
HMEC = assay: Cytotoxicity activity against HMEC cells upto 300 uM incubated for 72 hrs by CCK-8 assay; assay type: toxicity, cell-based; settings: human
[16] = Cmax in Sprague-Dawley rat at 10 mg/kg, ip measured upto 24 hrs by LC-MS/MS analysis; assay type: ADME, organism-based; design: time < 24 hrs, dose 10 mg/kg, route ip; settings: in vivo
NCI-H1299 [17] = assay: Induction of apoptosis in human NCI-H1299 cells assessed as early apoptotic cells at 1.0 uM incubated for 48 hrs by AnnexinV-FITC/propidium iodide staining based flow cytometry analysis (reference value: 0.11 % ); assay type: functional
[18] = tested on: Epidermal growth factor receptor (Homo sapiens), P00533 [L858R,T790M]; assay: Inhibition of EGFR L858R/T790M mutant phosphorylation in human NCI-H1975 cells at 1 uM measured after 48 hrs by Western blot assay; assay type: cell-based
HEK-293T = assay: Cytotoxicity activity against HEK293T cells upto 300 uM incubated for 72 hrs by CCK-8 assay; assay type: toxicity, cell-based; settings: human
[19] = tested on: Epidermal growth factor receptor (Homo sapiens), P00533 [L858R,T790M]; assay: Inhibition of EGFR L858R/T790M mutant phosphorylation in human NCI-H1975 cells preincubated under serum starvation for 8 hrs followed by compound addition measured after 48 hrs by Western blot analysis; assay type: cell-based; settings: dose 10-1000 nM, DDE = dose-dependent effect
[20] = Half life in Sprague-Dawley rat at 10 mg/kg, ip measured upto 24 hrs by LC-MS/MS analysis; assay type: ADME, organism-based; settings: in vivo
NCI-H1975 [21] = assay: Antitumor activity against human NCI-H1975 cells xenografted in […] mouse assessed as tumor growth inhibition at 10 mg/kg, ip administered once daily for 24 days relative to control; assay type: functional; settings: NCI-H1975, 576 h, time 24 day, read-out: TGI
NCI-H1975 [22] = assay: Induction of apoptosis in human NCI-H1975 cells assessed as early apoptotic cells at 1.0 uM incubated for 48 hrs by AnnexinV-FITC/propidium iodide staining based flow cytometry analysis (reference value: 0.11 % ); assay type: functional
NCI-H1975 [23] = assay: Induction of apoptosis in human NCI-H1975 cells assessed as early apoptotic cells at 0.1 uM incubated for 48 hrs by AnnexinV-FITC/propidium iodide staining based flow cytometry analysis (reference value: 0.11 % ); assay type: functional
[24] = Volume of distribution at steady state in Sprague-Dawley rat at 1 mg/kg, iv measured upto 24 hrs by LC-MS/MS analysis; assay type: ADME, organism-based; settings: in vivo, read-out: Vdss
[25] = target: Protein cereblon/Epidermal growth factor receptor (Homo sapiens, UniProt P00533+Q96SW2, L858R/T790M); assay: Protac activity at CRBN/EGFR L858R/T790M mutant in human NCI-H1975 cells assessed as induction of EGFR degradation incubated for 72 hrs by Western blot analysis; assay type: cell-based
NCI-H1299 [26] = assay: Antiproliferative activity against human NCI-H1299 cells expressing wild type EGFR incubated for 72 hrs by CCK-8 assay; assay type: functional, cell-based; settings: NCI-H1299, 72 h
[27] = Toxicity in BALB/c mouse xenografted with human NCI-H1299 cells assessed as change in body weight pretreated with compound at 10 mg/kg, ip administered once daily for 24 days and measured every 3 days […]; assay type: organism-based; settings: in vivo, 576 h, time 24 day
[28] = Clearance in Sprague-Dawley rat at 1 mg/kg, iv measured upto 24 hrs by LC-MS/MS analysis; assay type: ADME, organism-based; settings: in vivo
NCI-H1975 [29] = assay: Inhibition of ERK phosphorylation in human NCI-H1975 cells preincubated under serum starvation for 8 hrs followed by compound addition measured after 48 hrs by Western blot analysis; assay type: cell-based; settings: dose 10-1000 nM, DDE = dose-dependent effect
A549 = assay: Antiproliferative activity against human A549 cells expressing wild type EGFR incubated for 72 hrs by CCK-8 assay; assay type: functional, cell-based; settings: A549, 72 h

Sequence of Epidermal growth factor receptor (Homo sapiens), P00533 [L858R,T790M] (P00533 whole entry T790M/L858R, looked up): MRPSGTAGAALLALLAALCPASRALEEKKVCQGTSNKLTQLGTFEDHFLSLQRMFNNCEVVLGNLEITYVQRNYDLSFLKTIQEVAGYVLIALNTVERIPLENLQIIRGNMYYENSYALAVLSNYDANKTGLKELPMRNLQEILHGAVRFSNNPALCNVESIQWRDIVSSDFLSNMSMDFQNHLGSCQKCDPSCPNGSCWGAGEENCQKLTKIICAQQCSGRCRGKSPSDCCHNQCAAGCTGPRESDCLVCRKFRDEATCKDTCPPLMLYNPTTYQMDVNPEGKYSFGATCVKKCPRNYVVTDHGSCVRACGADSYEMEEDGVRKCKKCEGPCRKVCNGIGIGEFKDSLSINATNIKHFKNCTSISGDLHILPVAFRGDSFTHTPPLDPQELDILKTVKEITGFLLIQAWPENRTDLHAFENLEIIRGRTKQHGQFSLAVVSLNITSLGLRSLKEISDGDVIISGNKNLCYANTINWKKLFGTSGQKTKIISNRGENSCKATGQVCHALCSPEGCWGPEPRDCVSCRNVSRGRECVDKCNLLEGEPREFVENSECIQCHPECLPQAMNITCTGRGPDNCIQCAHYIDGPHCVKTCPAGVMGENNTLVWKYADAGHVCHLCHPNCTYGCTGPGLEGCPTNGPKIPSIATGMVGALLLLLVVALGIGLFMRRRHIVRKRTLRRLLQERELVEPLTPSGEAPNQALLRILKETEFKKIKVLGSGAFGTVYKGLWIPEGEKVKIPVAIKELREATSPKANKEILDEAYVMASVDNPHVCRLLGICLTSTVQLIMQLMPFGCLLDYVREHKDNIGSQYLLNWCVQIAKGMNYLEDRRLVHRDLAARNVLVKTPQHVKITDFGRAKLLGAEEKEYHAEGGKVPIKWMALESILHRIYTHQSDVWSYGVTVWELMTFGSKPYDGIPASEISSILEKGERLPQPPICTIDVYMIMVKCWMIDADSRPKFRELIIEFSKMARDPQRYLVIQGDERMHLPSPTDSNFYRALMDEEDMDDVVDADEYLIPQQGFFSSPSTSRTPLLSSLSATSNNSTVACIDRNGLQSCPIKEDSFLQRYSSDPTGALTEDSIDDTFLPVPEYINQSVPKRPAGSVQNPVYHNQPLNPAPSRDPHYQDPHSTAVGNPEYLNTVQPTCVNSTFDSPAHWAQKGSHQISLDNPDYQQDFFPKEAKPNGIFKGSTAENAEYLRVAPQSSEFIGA
Sequence of Serine/threonine-protein kinase AKT (Homo sapiens) (P31749 whole entry, looked up): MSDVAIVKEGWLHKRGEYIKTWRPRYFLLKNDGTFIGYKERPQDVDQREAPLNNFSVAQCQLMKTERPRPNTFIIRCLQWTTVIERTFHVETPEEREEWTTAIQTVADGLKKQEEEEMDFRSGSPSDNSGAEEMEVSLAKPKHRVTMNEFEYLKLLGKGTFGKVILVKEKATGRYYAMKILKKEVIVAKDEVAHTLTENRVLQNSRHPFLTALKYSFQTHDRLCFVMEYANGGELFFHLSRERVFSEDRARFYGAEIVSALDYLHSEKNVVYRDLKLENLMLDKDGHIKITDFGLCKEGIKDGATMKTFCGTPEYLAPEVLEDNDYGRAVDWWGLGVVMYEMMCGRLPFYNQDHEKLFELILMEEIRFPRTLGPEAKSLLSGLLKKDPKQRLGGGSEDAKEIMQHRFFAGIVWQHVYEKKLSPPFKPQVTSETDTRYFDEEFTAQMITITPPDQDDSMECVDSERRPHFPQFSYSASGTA
Sequence of Serine/threonine-protein kinase AKT (Homo sapiens) (P31751 whole entry, looked up): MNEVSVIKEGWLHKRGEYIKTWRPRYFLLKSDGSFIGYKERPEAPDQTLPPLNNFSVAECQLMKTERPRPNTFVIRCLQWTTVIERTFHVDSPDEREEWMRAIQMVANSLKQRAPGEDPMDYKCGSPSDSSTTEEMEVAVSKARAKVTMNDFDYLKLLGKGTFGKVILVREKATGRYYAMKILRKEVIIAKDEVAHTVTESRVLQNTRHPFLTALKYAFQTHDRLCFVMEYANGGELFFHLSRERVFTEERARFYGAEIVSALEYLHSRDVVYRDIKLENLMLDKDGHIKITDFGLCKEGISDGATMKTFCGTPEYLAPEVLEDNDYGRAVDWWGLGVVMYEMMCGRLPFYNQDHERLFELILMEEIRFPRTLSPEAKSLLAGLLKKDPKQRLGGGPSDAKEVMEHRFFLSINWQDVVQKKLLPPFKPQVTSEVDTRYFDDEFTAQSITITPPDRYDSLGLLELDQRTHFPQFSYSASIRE
Sequence of Serine/threonine-protein kinase AKT (Homo sapiens) (Q9Y243 whole entry, looked up): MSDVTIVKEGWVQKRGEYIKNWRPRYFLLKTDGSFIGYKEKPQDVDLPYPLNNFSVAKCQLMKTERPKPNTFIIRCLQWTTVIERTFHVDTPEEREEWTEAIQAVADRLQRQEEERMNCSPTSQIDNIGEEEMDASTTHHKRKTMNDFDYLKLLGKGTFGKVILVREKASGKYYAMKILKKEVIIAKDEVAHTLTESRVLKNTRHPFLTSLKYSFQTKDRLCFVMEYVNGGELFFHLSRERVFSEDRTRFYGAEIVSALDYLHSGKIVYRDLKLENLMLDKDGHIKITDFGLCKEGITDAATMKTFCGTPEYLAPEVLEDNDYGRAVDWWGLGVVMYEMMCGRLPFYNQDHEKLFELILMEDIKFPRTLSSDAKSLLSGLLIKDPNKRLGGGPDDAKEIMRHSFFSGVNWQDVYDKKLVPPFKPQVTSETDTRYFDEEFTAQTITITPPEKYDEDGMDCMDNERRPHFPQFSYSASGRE
Sequence of Protein cereblon/Epidermal growth factor receptor (P00533 25-1210 T790M/L858R limits assumed, stated change not applied): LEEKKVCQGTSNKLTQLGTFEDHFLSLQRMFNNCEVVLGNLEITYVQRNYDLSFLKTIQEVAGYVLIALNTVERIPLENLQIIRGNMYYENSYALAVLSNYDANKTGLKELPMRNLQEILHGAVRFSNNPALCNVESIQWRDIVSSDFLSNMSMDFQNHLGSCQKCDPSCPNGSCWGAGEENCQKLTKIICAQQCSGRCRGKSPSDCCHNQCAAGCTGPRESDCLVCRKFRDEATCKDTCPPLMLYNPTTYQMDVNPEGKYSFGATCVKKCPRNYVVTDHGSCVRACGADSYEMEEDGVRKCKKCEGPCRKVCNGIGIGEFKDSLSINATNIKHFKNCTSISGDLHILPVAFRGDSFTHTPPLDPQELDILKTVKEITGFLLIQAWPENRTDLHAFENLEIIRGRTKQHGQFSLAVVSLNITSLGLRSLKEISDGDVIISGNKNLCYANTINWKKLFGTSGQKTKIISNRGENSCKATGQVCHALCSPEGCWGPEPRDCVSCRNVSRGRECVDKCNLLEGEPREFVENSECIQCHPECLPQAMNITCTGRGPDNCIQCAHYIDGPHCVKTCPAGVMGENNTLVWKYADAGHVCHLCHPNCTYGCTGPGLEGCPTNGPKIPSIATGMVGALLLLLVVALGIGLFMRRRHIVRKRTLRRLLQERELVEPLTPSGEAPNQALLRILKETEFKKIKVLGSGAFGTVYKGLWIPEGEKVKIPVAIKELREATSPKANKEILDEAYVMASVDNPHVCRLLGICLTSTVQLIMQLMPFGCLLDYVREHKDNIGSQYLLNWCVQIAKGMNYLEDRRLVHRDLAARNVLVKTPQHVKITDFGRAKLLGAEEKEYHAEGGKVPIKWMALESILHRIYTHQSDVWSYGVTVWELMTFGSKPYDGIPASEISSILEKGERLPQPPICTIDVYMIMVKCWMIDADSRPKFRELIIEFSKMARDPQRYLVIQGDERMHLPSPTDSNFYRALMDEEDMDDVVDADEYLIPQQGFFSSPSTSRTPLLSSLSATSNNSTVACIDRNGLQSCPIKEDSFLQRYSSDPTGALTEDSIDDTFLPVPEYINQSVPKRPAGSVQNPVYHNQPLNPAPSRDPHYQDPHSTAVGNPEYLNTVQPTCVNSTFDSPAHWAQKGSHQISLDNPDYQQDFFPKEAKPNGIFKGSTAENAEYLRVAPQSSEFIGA
Sequence of Protein cereblon/Epidermal growth factor receptor (Q96SW2 whole entry, stated change not applied): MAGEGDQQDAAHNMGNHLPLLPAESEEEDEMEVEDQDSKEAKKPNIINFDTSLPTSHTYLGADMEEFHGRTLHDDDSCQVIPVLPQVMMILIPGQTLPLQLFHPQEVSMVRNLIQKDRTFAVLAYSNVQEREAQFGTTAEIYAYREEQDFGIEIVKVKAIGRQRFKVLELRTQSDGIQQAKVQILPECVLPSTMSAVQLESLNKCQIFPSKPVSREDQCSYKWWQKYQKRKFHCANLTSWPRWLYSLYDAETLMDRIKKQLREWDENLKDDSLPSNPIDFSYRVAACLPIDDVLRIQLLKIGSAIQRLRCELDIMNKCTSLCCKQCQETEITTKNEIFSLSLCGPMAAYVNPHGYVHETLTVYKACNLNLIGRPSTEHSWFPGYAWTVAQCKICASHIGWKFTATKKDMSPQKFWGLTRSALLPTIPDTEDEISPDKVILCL

Compound	AUC(0-inf) [1] [ng·h/mL]	Activity (NCI-H1975 [2])	viability at 1 µM (NCI-H1975 [3]) [%]	IC50 (HCC827) [nM]	Activity (NCI-H1975 [4]) [%]	viability at 1 µM (NCI-H1299 [5]) [%]	fraction unbound at 4 h, 1 µM [6]	inhibition [7]	Activity (NCI-H1299 [8]) [%]	Activity [9]	AUC(0-t) at 24 h [10] [ng·h/mL]	IC50 (NCI-H1975 [11]) [nM]	Activity (NCI-H1299 [12]) [%]	Activity (NCI-H1299 [13]) [%]	viability at 0.1 µM (NCI-H1975 [14]) [%]	Activity (NCI-H1975 [15]) [%]	Activity (HMEC)	Cmax [16] [ng/mL]	Activity (NCI-H1299 [17]) [%]	inhibition [18]	further results
C#CCN(CCC(=O)Nc1cccc2c1CN(C1CCC(=O)NC1=O)C2=O)CCN(C)c1cc(OC)c(Nc2nccc(-c3cn(C)c4ccccc34)n2)cc1NC(=O)C=C (stereo unspecified)	1610	Dde	50.8	1210	0.96	97.5	0.001	Dde	1.79	Non-Toxic	1540	58.1	0.39	0.25	90.8	24.3	Non-Toxic	197	0.08	Active	Activity (HEK-293T): Non-Toxic; inhibition [19]: Dde; half-life [20]: 130 min; inhibition in vivo at 10 mg/kg (NCI-H1975 [21]): 55.2%; Activity (NCI-H1975 [22]): 0.55%; Activity (NCI-H1975 [23]): 1.51%; Vd [24]: 7.38 L/kg; EC50 [25]: 35.5 nM; IC50 (NCI-H1299 [26]): > 100 µM; Activity [27]: Non-Toxic; clearance ([28]; Sprague-Dawley): 37.1 mL/min/kg; inhibition (NCI-H1975 [29]): Dde; IC50 (A549): > 100 µM
C#CCN(CCCC(=O)Nc1cccc2c1CN(C1CCC(=O)NC1=O)C2=O)CCN(C)c1cc(OC)c(Nc2nccc(-c3cn(C)c4ccccc34)n2)cc1NC(=O)C=C (stereo unspecified)	973	Dde	69	1120	9.3	97.8	0.002	Dde	1.27	Non-Toxic	971	46.8	0.48	0.37	85.6	25.1	Non-Toxic	128	0.082	Active	Activity (HEK-293T): Non-Toxic; inhibition [19]: Dde; half-life [20]: 111 min; inhibition in vivo at 10 mg/kg (NCI-H1975 [21]): 63.7%; Activity (NCI-H1975 [22]): 0.72%; Activity (NCI-H1975 [23]): 0.23%; Vd [24]: 7.87 L/kg; EC50 [25]: 13.2 nM; IC50 (NCI-H1299 [26]): > 100 µM; Activity [27]: Non-Toxic; CL ([28]; iv, 1 mg/kg, 24 h): 2073 mL/h/kg; inhibition (NCI-H1975 [29]): Dde; IC50 (A549): > 100 µM
